Test results from US8247211B2, “Glycopeptide antibiotics” (American Cyanamid Company, priority 2001, dated 2012).

Columns and labels:
[1] = test system: Staphylococcus aureus-SMITH (GC 4543); assay: Acute lethal infection in mice (ED50); format: in vivo; details: female CD-1 mice, intraperitoneal challenge, intravenous dose 30 min. after infection, 7 day survival ratios
Outline: (§1)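 ED50 derived from pooled 7-day survival in three separate experiments, five mice per dose level. Single intravenous dose 30 min after intraperitoneal infection of female CD-1 mice with enough bacteria to kill untreated animals in 24-48 h.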

[2] = test system: Enterococcus faecalis (GC 6189), vancomycin resistant strain; assay: Acute lethal infection in mice (ED50); format: in vivo; details: female CD-1 mice, intraperitoneal challenge, intravenous dose 30 min. after infection, 7 day survival ratios
Outline: as §1

Streptococcus sp. = assay: In vitro antibacterial evaluation: minimum inhibitory concentration (MIC), broth dilution method; format: cell-based; details: broth dilution, 5×10^5 CFU/mL, 18 hours at 35° C.
Outline: (§2)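 Using Muller-Hinton II […] and an inoculum of 5×10^5 CFU/mL, antibiotic dilutions from 64 down to 0.06 μg/mL were tested following NCCLS M7-A2. The MIC is the lowest concentration inhibiting growth, including in methicillin-, penicillin- or vancomycin-resistant clinical isolates.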

Escherichia coli = assay: as above; format: cell-based; details: 5×10^5 CFU/mL, 18 hours at 35° C.
Outline: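 Susceptibility determined by NCCLS-recommended broth dilution (M7-A2), Muller-Hinton II […]. Concentration span 64-0.06 μg/mL, inoculum 5×10^5 CFU/mL. Isolates include strains resistant to methicillin, penicillin and/or vancomycin.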

Staphylococcus sp. = assay: as above; format: cell-based; details: for MIC Staphylococcus aureus (ATCC 29213): strain ATCC 29213; for MIC Staphylococcus aureus (GC 1131): strain GC 1131; for MIC Staphylococcus aureus (GC 3051): strain GC 3051; for MIC Staphylococcus aureus (GC 3053): strain GC 3053; for MIC Staphylococcus aureus (GC 4541): strain GC 4541; for MIC Staphylococcus aureus (GC 4542): strain GC 4542; for MIC Staphylococcus aureus (GC 4544): strain GC 4544; for MIC Staphylococcus aureus (GC 4545): strain GC 4545
Outline: as §2

Enterococcus sp. = assay: as above; format: cell-based; details: broth dilution, 5×10^5 CFU/mL, 18 hours at 35° C.
Outline: as §2

[3] = broth dilution, 18 hours at 35° C.
[4] = strain GC 4543, broth dilution, 18 hours at 35° C.
[5] = strain GC 4546, broth dilution, 18 hours at 35° C.
[6] = strain GC 4547, broth dilution, 18 hours at 35° C.
[7] = strain GC 4548, broth dilution, 18 hours at 35° C.
[8] = strain GC 4549, broth dilution, 18 hours at 35° C.
[9] = strain GC 4551, broth dilution, 18 hours at 35° C.
[10] = strain GC 6257, broth dilution, 18 hours at 35° C.
[11] = broth dilution, 5×10^5 CFU/mL, 18 hours at 35° C.

CC(c1ccccc1)C1NC(=O)CNC(=O)C(CO)NC(=O)C(C(O)C2CNC(=N)N2C2OC(CO)C(O)C(O)C2O)NC(=O)C(C(O)C2CNC(=N)N2)NC(=O)C(Cc2ccc(OC3OC(CO)C(OC4OC5COC(Cc6ccc(F)cc6)OC5C(O)C4O)C(O)C3O)cc2)NC1=O (stereo not drawn) [Example 121, Cyclo[glycyl-β-methylphenylalanyl-O-[4-O-[4,6-O-(4-fluorophenethylidene)hexopyranosyl]-hexopyranosyl]tyrosyl-3-(2-iminoimidazolidin-4-yl)seryl-3-(3-hexopyranosyl-2-iminoimidazolidin-4-yl)serylseryl]]
0.5 µg/mL: MIC Coagulase Negative Staphylococcus (GC 4548) (Staphylococcus sp.; strain GC 4548) | MIC Coagulase Negative Staphylococcus (GC 4548) (Staphylococcus sp.; [7]) | MIC Coagulase Negative Staphylococcus (GC 4549) (Staphylococcus sp.; strain GC 4549) | MIC Coagulase Negative Staphylococcus (GC 4549) (Staphylococcus sp.; [8])
0.25 µg/mL: MIC Streptococcus agalactiae (GC 4564) (Streptococcus sp.) | MIC Streptococcus pyogenes (GC 4563) (Streptococcus sp.)
2 µg/mL: MIC Staphylococcus aureus (GC 1131) (Staphylococcus sp.) | MIC Staphylococcus aureus (GC 1131) (Staphylococcus sp.; [3]) | MIC Staphylococcus aureus (GC 4544) (Staphylococcus sp.) | MIC Staphylococcus aureus (GC 4544) (Staphylococcus sp.; [3]) | MIC Staphylococcus aureus (GC 4545) (Staphylococcus sp.) | MIC Staphylococcus aureus (GC 4545) (Staphylococcus sp.; [3]) | MIC Coagulase Negative Staphylococcus (GC 4551) (Staphylococcus sp.; strain GC 4551) | MIC Coagulase Negative Staphylococcus (GC 4551) (Staphylococcus sp.; [9]) | MIC Enterococccus faecalis (ATCC 29212) (Enterococcus sp.) | MIC Enterococccus faecalis (GC 3059) (Enterococcus sp.) | MIC Enterococccus faecalis (GC 4552) (Enterococcus sp.) | MIC Enterococccus faecalis (GC 4554) (Enterococcus sp.) | MIC Enterococccus faecalis (GC 6189) (Enterococcus sp.) | MIC Enterococccus faecium (GC 2243) (Enterococcus sp.) | MIC Enterococccus faecium (GC 4556) (Enterococcus sp.) | MIC Enterococccus faecium (GC 4557) (Enterococcus sp.) | MIC Enterococcus faecalis (GC 2242) (Enterococcus sp.)
32 µg/mL: MIC Escherichia coli (ATCC 25922) (Escherichia coli) | MIC Escherichia coli (GC 4559) (Escherichia coli)
<0.06 µg/mL: MIC Streptococcus pneumoniae (GC 1894) (Streptococcus sp.) | MIC Streptococcus pneumoniae (GC 4565) (Streptococcus sp.) | MIC Streptococcus pneumonine (ATCC 6301) (Streptococcus sp.)
0.5 mg/kg: median effective dose (ED50), Enterococcus faecalis (GC 6189) [2]
4 µg/mL: MIC Enterococccus avium (GC 4558) (Enterococcus sp.) | MIC Enterococccus faecalis (GC 2691) (Enterococcus sp.) | MIC Enterococccus faecalis (GC 4553) (Enterococcus sp.)
1 µg/mL: MIC Escherichia coli (GC 4560) (Escherichia coli) | MIC Staphylococcus aureus (ATCC 29213) (Staphylococcus sp.) | MIC Staphylococcus aureus (ATCC 29213) (Staphylococcus sp.; [3]) | MIC Staphylococcus aureus (GC 3051) (Staphylococcus sp.) | MIC Staphylococcus aureus (GC 3051) (Staphylococcus sp.; [3]) | MIC Staphylococcus aureus (GC 3053) (Staphylococcus sp.) | MIC Staphylococcus aureus (GC 3053) (Staphylococcus sp.; [3]) | MIC Staphylococcus aureus (GC 4541) (Staphylococcus sp.) | MIC Staphylococcus aureus (GC 4541) (Staphylococcus sp.; [3]) | MIC Staphylococcus aureus (GC 4542) (Staphylococcus sp.) | MIC Staphylococcus aureus (GC 4542) (Staphylococcus sp.; [3]) | MIC Staphylococcus aureus-SMITH (GC 4543) (Staphylococcus sp.; strain GC 4543, 18 hours at 35° C.) | MIC Staphylococcus aureus-SMITH (GC 4543) (Staphylococcus sp.; [4]) | MIC Staphylococcus haemolyticus (GC 4546) (Staphylococcus sp.; strain GC 4546) | MIC Staphylococcus haemolyticus (GC 4546) (Staphylococcus sp.; [5]) | MIC Coagulase Negative Staphylococcus (GC 4547) (Staphylococcus sp.; strain GC 4547) | MIC Coagulase Negative Staphylococcus (GC 4547) (Staphylococcus sp.; [6]) | MIC Coagulase Negative Staphylococcus (GC 6257) (Staphylococcus sp.; strain GC 6257) | MIC Coagulase Negative Staphylococcus (GC 6257) (Staphylococcus sp.; [10])
0.32 mg/kg: median effective dose (ED50), Staphylococcus aureus-SMITH (GC 4543) [1]

Cc1cccc(C2OCC3OC(OC4C(CO)OC(Oc5ccc(CC6NC(=O)C(C(C)c7ccccc7)NC(=O)CNC(=O)C(CO)NC(=O)C(C(O)C7CNC(=N)N7C7OC(CO)C(O)C(O)C7O)NC(=O)C(C(O)C7CNC(=N)N7)NC6=O)cc5)C(O)C4O)C(O)C(O)C3O2)c1 (stereo not drawn) [Example 135, Cyclo[glycyl-β-methylphenylalanyl-O-[4-O-[4,6-O-(3-methylbenzylidene)hexopyranosyl]-hexopyranosyl]tyrosyl-3-(2-iminoimidazolidin-4-yl)seryl-3-(3-hexopyranosyl-2-iminoimidazolidin-4-yl)serylseryl]]
0.25 µg/mL: MIC Streptococcus agalactiae (GC 4564) (Streptococcus sp.) | MIC Streptococcus pyogenes (GC 4563) (Streptococcus sp.)
0.07 mg/kg: median effective dose (ED50), Staphylococcus aureus-SMITH (GC 4543) [1]
0.26 mg/kg: median effective dose (ED50), Enterococcus faecalis (GC 6189) [2]
2 µg/mL: MIC Staphylococcus aureus (GC 4544) (Staphylococcus sp.) | MIC Staphylococcus aureus (GC 4544) (Staphylococcus sp.; [3]) | MIC Enterococccus avium (GC 4558) (Enterococcus sp.) | MIC Enterococccus faecalis (ATCC 29212) (Enterococcus sp.) | MIC Enterococccus faecalis (GC 2691) (Enterococcus sp.) | MIC Enterococccus faecalis (GC 3059) (Enterococcus sp.) | MIC Enterococccus faecalis (GC 4552) (Enterococcus sp.) | MIC Enterococccus faecalis (GC 4553) (Enterococcus sp.) | MIC Enterococccus faecalis (GC 4554) (Enterococcus sp.) | MIC Enterococccus faecalis (GC 6189) (Enterococcus sp.) | MIC Enterococccus faecium (GC 2243) (Enterococcus sp.) | MIC Enterococccus faecium (GC 4556) (Enterococcus sp.) | MIC Enterococccus faecium (GC 4557) (Enterococcus sp.) | MIC Enterococcus faecalis (GC 2242) (Enterococcus sp.)
<0.06 µg/mL: MIC Streptococcus pneumoniae (GC 1894) (Streptococcus sp.) | MIC Streptococcus pneumoniae (GC 4565) (Streptococcus sp.) | MIC Streptococcus pneumonine (ATCC 6301) (Streptococcus sp.)
0.5 µg/mL: MIC Escherichia coli (GC 4560) (Escherichia coli) | MIC Coagulase Negative Staphylococcus (GC 4548) (Staphylococcus sp.; [11]) | MIC Coagulase Negative Staphylococcus (GC 4549) (Staphylococcus sp.; [11]) | MIC Coagulase Negative Staphylococcus (GC 6257) (Staphylococcus sp.; [11]) | MIC Staphylococcus haemolyticus (GC 4546) (Staphylococcus sp.; [11]) | MIC Staphylococcus haemolyticus (GC 4546) (Staphylococcus sp.; [5]) | MIC Coagulase Negative Staphylococcus (GC 4548) (Staphylococcus sp.; [7]) | MIC Coagulase Negative Staphylococcus (GC 4549) (Staphylococcus sp.; [8]) | MIC Coagulase Negative Staphylococcus (GC 6257) (Staphylococcus sp.; [10])
32 µg/mL: MIC Escherichia coli (ATCC 25922) (Escherichia coli) | MIC Escherichia coli (GC 4559) (Escherichia coli)
1 µg/mL: MIC Coagulase Negative Staphylococcus (GC 4547) (Staphylococcus sp.; [11]) | MIC Coagulase Negative Staphylococcus (GC 4551) (Staphylococcus sp.; [11]) | MIC Staphylococcus aureus-SMITH (GC 4543) (Staphylococcus sp.; [11]) | MIC Staphylococcus aureus (ATCC 29213) (Staphylococcus sp.) | MIC Staphylococcus aureus (ATCC 29213) (Staphylococcus sp.; [3]) | MIC Staphylococcus aureus (GC 1131) (Staphylococcus sp.) | MIC Staphylococcus aureus (GC 1131) (Staphylococcus sp.; [3]) | MIC Staphylococcus aureus (GC 3051) (Staphylococcus sp.) | MIC Staphylococcus aureus (GC 3051) (Staphylococcus sp.; [3]) | MIC Staphylococcus aureus (GC 3053) (Staphylococcus sp.) | MIC Staphylococcus aureus (GC 3053) (Staphylococcus sp.; [3]) | MIC Staphylococcus aureus (GC 4541) (Staphylococcus sp.) | MIC Staphylococcus aureus (GC 4541) (Staphylococcus sp.; [3]) | MIC Staphylococcus aureus (GC 4542) (Staphylococcus sp.) | MIC Staphylococcus aureus (GC 4542) (Staphylococcus sp.; [3]) | MIC Staphylococcus aureus-SMITH (GC 4543) (Staphylococcus sp.; [4]) | MIC Staphylococcus aureus (GC 4545) (Staphylococcus sp.) | MIC Staphylococcus aureus (GC 4545) (Staphylococcus sp.; [3]) | MIC Coagulase Negative Staphylococcus (GC 4547) (Staphylococcus sp.; [6]) | MIC Coagulase Negative Staphylococcus (GC 4551) (Staphylococcus sp.; [9])
